Where two headings read alike, the source gives them in different places.
Key:
[1] = system: influenza A virus A/Aichi/2/68 (H3N2); experiment: microbe, parasite or virus in culture; assay type: cell-based; conditions: read-out: IC50 H3N2 Aichi strain
[2] = set-up: method as in earlier work; conditions: cited from earlier work
[3] = system: influenza A virus A/PR/8/34 (H1N1); experiment: microbe, parasite or virus in culture; assay type: cell-based; conditions: read-out: IC50 H1N1 PR8 strain
[4] = system: HIV-reverse transcriptase; set-up: method as in PMID 15686922; conditions: cited from earlier work

Molecule	IC50 [1] [µM]	antioxidant activity [2]	IC50 [3] [µM]	IC50 ([1]; Influenza A virus, H3N2, MDCK, 24 h) [µM]	inhibition of HIV-reverse transcriptase [4]	IC50 ([3]; Influenza A virus, MDCK, 24 h) [µM]
[60]fullerenodicyclopropane-1,1,1′,1′-tetracarboxylic acid [no. 2]	> 100	excellent antioxidant activity	57			
O=C(O)C1NC(C(=O)O)C23c4c5c6c7c8c9c(c%10c%11c2c2c4c4c%12c5c5c6c6c8c8c%13c9c9c%10c%10c%11c%11c2c2c4c4c%12c%12c5c5c6c8c6c8c%13c9c9c%10c%10c%11c2c2c4c4c%12c5c6c5c8c9c%10c2c45)C713 (stereo not drawn) [no. 3, [60]fullerenopyrrolidine-2,5-dicarboxylic acid]				> 100	inhibits	> 100
